Source: patent US20250025443A1, “COMPOUNDS AND METHODS FOR TREATING CORONA VIRUSES” (CLEAR CREEK BIO, INC., priority 2021, published 2025)

What follows are compounds tested against SARS-CoV-2 Papain-Like Protease (PLpro) (Severe acute respiratory syndrome coronavirus 2 (2019-nCoV) (SARS-CoV-2), UniProt P0DTD1) (assay: biochemical). Details: SARS-CoV-2 PLpro enzymatic fluorescence assay; read-out: PLpro IC50.

| Compound | IC50 |
| --- | --- |
| Cc1cc2cc(C(=O)O)[nH]c2cc1C(=O)NC1(c2cccc3ccccc23)CC1 [Compound 204, 5-Methyl-6-((1-(naphthalen-1-yl)cyclopropyl)carbamoyl)-1H-indole-2-carboxylic acid] | 0.1 to 1 µM |
| Cc1cc2cc(C(N)=O)[nH]c2cc1C(=O)NC1(c2cccc3ccccc23)CC1 [Compound 205] | 0.1 to 1 µM |
| Cc1cc2cc(CN3CCOCC3)[nH]c2cc1C(=O)N[C@H](C)c1cccc2ccccc12 [Compound 206, (R)-5-Methyl-2-(morpholinomethyl)-N-(1-(naphthalen-1-yl)ethyl)-1H-indole-6-carboxamide] | 1 to 5 µM |
| Cc1cc2c(cc1C(=O)NC1(c3cccc4ccccc34)CC1)NCC2 [Compound 207, 5-Methyl-N-(1-(naphthalen-1-yl)cyclopropyl)indoline-6-carboxamide] | 0.1 to 1 µM |
| Cc1cc2ccn(C)c2cc1C(=O)N(C)C1(c2cccc3ccccc23)CC1 [Compound 208, N,1,5-Trimethyl-N-(1-(naphthalen-1-yl)cyclopropyl)-1H-indole-6-carboxamide] | > 5 µM |
| Cc1ccc(OCCN2CCOCC2)cc1C(=O)NC1(c2cccc3ccccc23)CC1 [Compound 209, 2-Methyl-5-(2-morpholinoethoxy)-N-(1-(naphthalen-1-yl)cyclopropyl)benzamide] | 0.1 to 1 µM |
| Cc1cc2c(cc1C(=O)NC1(c3cccc4ccccc34)CC1)N(C)CC2 [Compound 210, 1,5-Dimethyl-N-(1-(naphthalen-1-yl)cyclopropyl)indoline-6-carboxamide] | 0.1 to 1 µM |
| Cc1ccc(OCCN)cc1C(=O)N(C)C1(c2cccc3ccccc23)CC1 [Compound 211, 5-(2-Aminoethoxy)-N,2-dimethyl-N-(1-(naphthalen-1-yl)cyclopropyl)benzamide] | > 5 µM |
| Cc1cc2c(C)c[nH]c2cc1C(=O)NC1(c2cccc3ccccc23)CC1 [Compound 212, 3,5-Dimethyl-N-(1-(naphthalen-1-yl)cyclopropyl)-1H-indole-6-carboxamide] | 0.1 to 1 µM |
| Cc1cc2cc(CN3CCOCC3)[nH]c2cc1C(=O)NC1(c2cccc3ccccc23)CC1 [Compound 213, 5-Methyl-2-(morpholinomethyl)-N-(1-(naphthalen-1-yl)cyclopropyl)-1H-indole-6-carboxamide] | 1 to 5 µM |
| Cc1ccc(OCCN(C)C)cc1C(=O)NC1(c2cccc3ccccc23)CC1 [Compound 214, 5-(2-(Dimethylamino)ethoxy)-2-methyl-N-(1-(naphthalen-1-yl)cyclopropyl)benzamide] | < 0.1 µM |
| Cc1ccc(OCCN)cc1C(=O)NC1(c2cccc3ccccc23)CC1 [Compound 215, 5-(2-Aminoethoxy)-2-methyl-N-(1-(naphthalen-1-yl)cyclopropyl)benzamide] | < 0.1 µM |
| Cc1cc(I)c(N)cc1C(=O)NC1(c2cccc3ccccc23)CC1 [Compound 216, 5-Amino-4-iodo-2-methyl-N-(1-(naphthalen-1-yl)cyclopropyl)benzamide] | 0.1 to 1 µM |
| Cc1cc(C#Cc2ccccc2)c(N)cc1C(=O)NC1(c2cccc3ccccc23)CC1 [Compound 217, 5-Amino-2-methyl-N-(1-(naphthalen-1-yl)cyclopropyl)-4-(phenylethynyl)benzamide] | > 5 µM |
| Cc1cc2ccn(C3CNC3)c2cc1C(=O)NC1(c2cccc3ccccc23)CC1 [Compound 218, 1-(Azetidin-3-yl)-5-methyl-N-(1-(naphthalen-1-yl)cyclopropyl)-1H-indole-6-carboxamide] | < 0.1 µM |
| Cc1ccc(N)cc1C(=O)NC1(c2cccc3ccccc23)CCC1 [Compound 219, 5-Amino-2-methyl-N-(1-(naphthalen-1-yl)cyclobutyl)benzamide] | > 5 µM |

| Compound | IC50 |
| --- | --- |
| CNCc1cc2cc(C)c(C(=O)NC3(c4cccc5ccccc45)CC3)cc2o1 [Compound 220, 5-Methyl-2-((methylamino)methyl)-N-(1-(naphthalen-1-yl)cyclopropyl)benzofuran-6-carboxamide] | < 0.1 µM |
| CNCc1cc2cc(C)c(C(=O)NC3(c4cccc5ccccc45)CC3)cc2[nH]1 [Compound 221] | < 0.1 µM |
| CNCCc1cc2cc(C)c(C(=O)NC3(c4cccc5ccccc45)CC3)cc2[nH]1 [Compound 222, 5-Methyl-2-(2-(methylamino)ethyl)-N-(1-(naphthalen-1-yl)cyclopropyl)-1H-indole-6-carboxamide] | 0.1 to 1 µM |
| Cc1cc2[nH]ccc2cc1C(=O)NC1(c2cccc3ccccc23)CC1 [Compound 223, 6-Methyl-N-(1-(naphthalen-1-yl)cyclopropyl)-1H-indole-5-carboxamide] | 0.1 to 1 µM |
| CON(C)C(=O)c1cc2cc(C)c(C(=O)NC3(c4cccc5ccccc45)CC3)cc2[nH]1 [Compound 225] | 0.1 to 1 µM |
| Cc1cc2cc(-c3ccccc3)[nH]c2cc1C(=O)NC1(c2cccc3ccccc23)CC1 [Compound 226, 5-Methyl-N-(1-(naphthalen-1-yl)cyclopropyl)-2-phenyl-1H-indole-6-carboxamide] | > 5 µM |
| Cc1cc2c(cc1C(=O)NC1(c3cccc4ccccc34)CC1)NCCC2 [Compound 227, 6-Methyl-N-(1-(naphthalen-1-yl)cyclopropyl)-1,2,3,4-tetrahydroquinoline-7-carboxamide] | 0.1 to 1 µM |
| Cc1cc2cc(CNCc3ccccc3)[nH]c2cc1C(=O)NC1(c2cccc3ccccc23)CC1 [Compound 229, 2-((Benzylamino)methyl)-5-methyl-N-(1-(naphthalen-1-yl)cyclopropyl)-1H-indole-6-carboxamide] | < 0.1 µM |
| CNCC1Cc2cc(C)c(C(=O)NC3(c4cccc5ccccc45)CC3)cc2N1 (centres unmarked) [Compound 231, 5-Methyl-2-((methylamino)methyl)-N-(1-(naphthalen-1-yl)cyclopropyl)indoline-6-carboxamide] | < 0.1 µM |
| Cc1cc2cc(CN)[nH]c2cc1C(=O)NC1(c2cccc(Br)c2)CC1 [Compound 232, 2-(Aminomethyl)-N-(1-(3-bromophenyl)cyclopropyl)-5-methyl-1H-indole-6-carboxamide] | 1 to 5 µM |
| CNCCOc1ccc(C)c(C(=O)NC2(c3cccc4ccccc34)CC2)c1 [Compound 233, 2-Methyl-5-(2-(methylamino)ethoxy)-N-(1-(naphthalen-1-yl)cyclopropyl)benzamide] | < 0.1 µM |
| Cc1cc2cc(-c3ccccn3)[nH]c2cc1C(=O)NC1(c2cccc3ccccc23)CC1 [Compound 234, 5-Methyl-N-(1-(naphthalen-1-yl)cyclopropyl)-2-(pyridin-2-yl)-1H-indole-6-carboxamide] | 0.1 to 1 µM |
| Cc1cc2cc(CN)oc2cc1C(=O)NC1(c2cccc3ccccc23)CC1 [Compound 236] | 0.1 to 1 µM |
| Cc1cc2c(cc1C(=O)NC1(c3cccc4ccccc34)CC1)n(C)c(=O)n2C [Compound 237, 1,3,6-Trimethyl-N-(1-(naphthalen-1-yl)cyclopropyl)-2-oxo-2,3-dihydro-1H-benzo[d]imidazole-5-carboxamide] | 1 to 5 µM |
| Cc1cc2[nH]c(=O)[nH]c2cc1C(=O)NC1(c2cccc3ccccc23)CC1 [Compound 238, 6-Methyl-N-(1-(naphthalen-1-yl)cyclopropyl)-2-oxo-2,3-dihydro-1H-benzo[d]imidazole-5-carboxamide] | 0.1 to 1 µM |
| Cc1cc2ccn(CC3CNC3)c2cc1C(=O)NC1(c2cccc3ccccc23)CC1 [Compound 239, 1-(Azetidin-3-ylmethyl)-5-methyl-N-(1-(naphthalen-1-yl)cyclopropyl)-1H-indole-6-carboxamide] | < 0.1 µM |
